One block for each compound: values may come before it. Activity calls are given as the source filed them. The rule behind the calls is not given here.
How the values were obtained:
[1] = biological target: Transcriptional coactivator YAP1 (Homo sapiens) (UniProt P46937); experiment: Inhibition of YAP1 (unknown origin) assessed as disruption in YAP1/OCT4 interaction at 50 uM by cell based assay
[2] = biological target: Transcriptional coactivator YAP1 (Homo sapiens) (UniProt P46937); experiment: Inhibition of YAP1 (unknown origin) assessed as disruption in YAP1/OCT4 interaction at 5 uM by ELISA relative to control
[3] = biological target: Transcriptional coactivator YAP1 (Homo sapiens) (UniProt P46937); experiment: Inhibition of YAP1 (unknown origin) assessed as disruption in YAP1/OCT4 interaction at 10 uM by ELISA relative to control
NCI-H1650 [4] = experiment: Inhibition of self-renewal capacity in stem-like side-population cells of human NCI-H1650 cells assessed as reduction in number of spheres at 5 to 50 uM incubated for 10 days by sphere formation assay; type: functional, cell-based
[5] = biological target: Transcriptional coactivator YAP1 (Homo sapiens) (UniProt P46937); experiment: Inhibition of YAP1 in human A549 cells assessed as disruption in YAP1/OCT4 co-localization at 25 uM incubated for 48 hrs by double immunofluorescence based assay; type: cell-based
NCI-H1650 [6] = experiment: Cytotoxicity in human NCI-H1650 cells assessed as induction of cell killing in presence of cancer associated fibroblasts at 20 to 50 uM incubated for 24 to 48 hrs by cytotracker-red/green dye staining based immunofluorescence microscopy; type: functional
[7] = Cytotoxicity in human cancer associated fibroblasts at 20 to 50 uM incubated for 24 to 48 hrs by cytotracker-red/green dye staining based immunofluorescence microscopy
NCI-H146 = experiment: Inhibition of self-renewal capacity in methotrexate insensitive stem-like side-population cells of human NCI-H146 cells assessed as reduction in number of spheres at 2 uM incubated for 3 days after 7 days methotrexate exposure by sphere formation assay; type: functional
NCI-H1650 [8] = experiment: Inhibition of self-renewal capacity in stem-like side-population cells of human NCI-H1650 cells assessed as reduction in number of spheres at 1 to 20 uM incubated for 10 days by sphere formation assay; type: functional, cell-based
NCI-H1650 [9] = experiment: Inhibition of self-renewal capacity in stem-like side-population cells of human NCI-H1650 cells assessed as reduction in number of spheres at 50 uM incubated for 10 days by sphere formation assay; type: functional, cell-based
[10] = biological target: Transcriptional coactivator YAP1 (Homo sapiens) (UniProt P46937); experiment: Inhibition of YAP1 in human NCI-H1650 cells assessed as disruption in YAP1/OCT4 interaction at 20 to 50 uM incubated for 48 hrs by proximity ligation assay; type: cell-based
NCI-H1650 [11] = experiment: Inhibition of YAP1 in human NCI-H1650 cells assessed as disruption in YAP1/TEAD2 interaction at 20 to 50 uM incubated for 48 hrs by proximity ligation assay; type: cell-based

Transcriptional coactivator YAP1 (Homo sapiens), sequence (P46937 whole entry): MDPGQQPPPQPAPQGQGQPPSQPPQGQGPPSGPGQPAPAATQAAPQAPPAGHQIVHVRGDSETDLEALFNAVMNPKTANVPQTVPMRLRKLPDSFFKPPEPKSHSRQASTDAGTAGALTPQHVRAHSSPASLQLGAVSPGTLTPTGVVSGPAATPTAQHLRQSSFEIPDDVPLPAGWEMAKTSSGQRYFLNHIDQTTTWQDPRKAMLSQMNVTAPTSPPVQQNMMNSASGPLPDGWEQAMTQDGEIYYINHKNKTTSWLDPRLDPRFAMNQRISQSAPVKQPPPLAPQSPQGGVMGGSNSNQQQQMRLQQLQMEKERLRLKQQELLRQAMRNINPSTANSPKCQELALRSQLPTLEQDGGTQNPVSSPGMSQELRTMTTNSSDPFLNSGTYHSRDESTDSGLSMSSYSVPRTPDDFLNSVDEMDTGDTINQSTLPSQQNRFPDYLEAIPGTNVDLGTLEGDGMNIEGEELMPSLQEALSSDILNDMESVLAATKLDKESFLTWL

inhibition [1]: > 73%
inhibition [2]: 90%
inhibition [3]: 90%
SMILES: O=C(CC1CCN(C(=O)CCc2ccccc2)CC1)N[C@@H](Cc1ccc(OCc2ccccc2)cc1)C(=O)NC1CC1

inhibition [1]: 70%
inhibition [2]: 78%
SMILES: COC(=O)[C@H](Cc1ccc(O)cc1)NC(=O)CC1CCN(C(=O)OC(C)(C)C)CC1

inhibition [5]: Active
SMILES: COc1cc2c(cc1OC)[N+]([O-])=C(c1ccccc1)C2=O
Activity (NCI-H1650 [6]): Active
Activity [7]: Non-Toxic

inhibition [1]: 70%
inhibition [3]: 57%
SMILES: COC(=O)[C@H](Cc1ccc(OCc2ccccc2)cc1)NC(=O)CC1CCN(Cc2ccccc2)CC1

inhibition [1]: > 77%
inhibition [2]: 97%
SMILES: COC(=O)[C@H](Cc1ccc(O)cc1)NC(=O)CC1CCN(C(=O)CCc2ccccc2)CC1

inhibition [5]: Active
inhibition [10]: Active
SMILES: COCCn1c2nc(=O)n(-c3ccccc3)c(=O)c-2nc2ccccc21
inhibition (NCI-H1650 [9]): Active
Activity (NCI-H1650 [6]): Active
inhibition (NCI-H1650 [8]): Active
Activity [7]: Non-Toxic
inhibition (NCI-H1650 [11]): Active

inhibition [1]: 83%
inhibition [2]: 95%
SMILES: CC(C)NC(=O)[C@H](Cc1ccc(OCc2ccccc2)cc1)NC(=O)CC1CCN(C(=O)OC(C)(C)C)CC1

The remaining lines, values behind:

SMILES: O=C(CC1CCN(C(=O)CCc2cccc(F)c2)CC1)N[C@@H](Cc1ccc(OCc2ccccc2)cc1)C(=O)O
inhibition (NCI-H1650 [4]): Active

SMILES: NC(=O)[C@H](Cc1ccc(OCc2ccccc2)cc1)NC(=O)CC1CCN(C(=O)CCc2ccccc2)CC1
inhibition (NCI-H146): Active

SMILES: COC(=O)[C@H](Cc1ccc(OCc2ccccc2)cc1)NC(=O)CC1CCN(C(=O)CCc2cccc(C)c2)CC1
inhibition (NCI-H1650 [8]): Active

SMILES: CC1Oc2cc3c(-c4c(O)cc(O)c5c(O)c6c(cc45)OC(C)C(C)C6=O)c(O)cc(O)c3c(O)c2C(=O)C1C (centres undefined)
inhibition (NCI-H1650 [9]): Active
Activity (NCI-H1650 [6]): Active
Activity [7]: Non-Toxic

SMILES: CCOC(=O)/C(C#N)=C/c1c[nH]c2ccccc12
inhibition (NCI-H1650 [9]): Active

SMILES: O=C1NC2C(O)C(O)C(O)C(O)C2c2cc3c(c(O)c21)OCO3 (centres undefined)
inhibition (NCI-H1650 [9]): Active

From ChEMBL document CHEMBL4419178, “Yap1 inhibitors that target the interaction of yap1 with oct4” (2018)
